“Also recorded” adds a separate entry of the source.
Assays:
[1] = tested on: thrombin generation in human PRP; experiment: Studies regarding measurement conditions: ADP alone on thrombin generation in human PRP; format: cell-based; conditions: ADP final concentration 5, 10 or 20 μM, no TF
[2] = tested on: thrombin generation in human PRP; conditions: Example 2; Edoxaban 40, 80 ng/mL; Ticagrelor 3 μg/mL; ADP 10 μM, TF 0.25 pM
Procedure: The obtained blood was centrifuged at room temperature at 150×g for 10 minutes, so that a supernatant was obtained as PRP. The residue obtained after separation of the PRP was centrifuged at room temperature at 2000×g for 10 minutes, so that a supernatant was obtained as platelet poor plasma (hereinafter also referred to as “PPP”). The PRP was diluted with the PPP, so that the number of platelets in the PRP could be 2×10^5 platelets/μL. The obtained PRP was left at 16° C. for 30 minutes or more, and it was then used for the measurement of thrombin generation.
10 μL of a 1% DMSO-containing saline was added to a 96-well plate, and 70 μL of the above obtained human PRP was then added thereto. […]
Five to seven minutes later, 20 μL of the heated FluCa-kit liquid (manufactured by Thrombinoscope BV) was added to the well, so that the reaction was initiated. Using a fluorophotometer (Fluoroskan Ascent, manufactured by Thermo Scientific), the fluorescence intensity at ex 390 nm/em 460 nm was measured at 37° C. for 150 minutes, and using Thrombinoscope software (manufactured by Thrombinoscope BV), Lag time (min), Time to Peak (min), ETP (nM×min), Peak (nM), and MaxR (nM/min) were calculated. […]
Subsequently, individual parameters were calculated in the same manner as that in the above “Studies regarding measurement conditions.” […]

| Structure (SMILES) | Effect of ADP alone on thrombin generation [1] | Effect on thrombin generation, agent used alone compared to controls [2] |
| --- | --- | --- |
| Nc1ncnc2c1ncn2[C@@H]1O[C@H](COP(=O)(O)OP(=O)(O)O)[C@@H](O)[C@H]1O [ADP, adenosine diphosphate] | provokes thrombin generation | – |
| CCCSc1nc(N[C@@H]2C[C@H]2c2ccc(F)c(F)c2)c2nnn([C@@H]3C[C@H](OCCO)[C@@H](O)[C@H]3O)c2n1 [Ticagrelor] | – | suppresses the generation of thrombin; also recorded: significantly suppresses thrombin generation, in terms of Peak, Time to Peak, and MaxR |
